# Reference: patent publication US11123350B2, “Metal delivery agents and therapeutic uses of the same” (THE UNIVERSITY OF MELBOURNE, priority 2006, dated 2021)
# Columns and labels:
# [1] = tested on: A30P cells; assay: Dopamine induced cell death, A30P cells (MTT); type: cell-based
# [2] = tested on: G93A-SOD1 mice; settings: other reported pharmacological treatments (literature); cited from earlier work
SMILES,% recovery ([1]; Dopamine 500 μm + complex 0.01 μM) [%],% recovery ([1]; Dopamine 500 μm + complex 0.1 μM) [%],Increased Life Span [2]
"CN=C([S-])N/N=C(C)/C(C)=N/NC([S-])=NC.[64Cu+2] [Complex A2, copper(II)diacetylbis(N(4)-methylthiosemicarbazone)]",105.90,97.77,
NCC1(CC(=O)O)CCCCC1 [Gabapentin],,,No effect
CC(=O)Oc1ccccc1C(=O)O [Lysine Acetyl salicylate],,,No effect
O=C1NC(=O)C(c2ccc(-c3ccccc3)cc2)(N2CCN(c3ccc([N+](=O)[O-])cc3)CC2)C(=O)N1 [Ro 28-2653],,,13 days
